The values below come from PMC2692672 (Journal of molecular biology, 2009).

This test concerns the target GRP94 (Canis lupus, UniProt P41148, DEL287-327). The test can be described thus: co-crystal structure. It is filed as binding.

`COC(=O)c1c(O)cc(O)c(Cl)c1CCC(=O)NC1=CC(=O)C(OC)=CC1=O` [Radamide] yielded a dissociation constant Kd of 520 ± 130 nM.
